Converted amounts (≈) assume the structure as drawn. No end group written: not given here.

Here are results for 6 molecules from US5945400A, “Nucleic acid-containing composition, preparation and use thereof” (Rhone-Poulenc Rorer SA, priority 1995, dated 1999).

One series in a line: physchem. Format: physicochemical. Here is the method:
This oligopeptide was synthesized in the form of the trifluoroacetic acid salt using an Applied Biosystem 431A peptide synthesizer, on an HMP resin (Applied Biosystem) and according to an FMOC strategy. After the synthesis, the peptide was released from the resin by treatment for 90 minutes in the presence of 1/19 water/TFA solution. After filtration, the solution is concentrated on a rotary evaporator and the peptide is then precipitated twice, by addition of tert-butyl methyl ether, from a solution in TFA. The final pellet is washed with tert-butyl methyl ether and then dried. The peptide is dissolved in 5 ml of water, filtered and purified by reverse-phase HPLC on a C18 100 A column (Biorad RSL). The peptide is purified by with the aid of a gradient of 0 to 25% of acetonitrile, 0.07% TFA in water 0.07% TFA. The purity of the peptide obtained is greater than 95% and its solubility in water is 100 mg/ml.
This oligopeptide was synthesized in the form of the trifluoroacetic acid salt according to the procedure described above, using 2/40/3/1/2 (v/v) water/TFA/phenol/ethanedithiol/thioanisole solution for the cleavage. The purity of the peptide obtained is greater than 95% and its solubility in water is 100 mg/ml at pH 2.1.
These oligopeptides are synthesized in the form of the trifluoroacetic acid salts according to the procedure described above. To do this, the resin is divided into two batches. A first batch intended for the synthesis of H is treated for the cleavage with 40/3/1/2/2 (v/v) TFA/phenol/ethanedithiol/thioanisole/water solution. The purity of the peptide obtained is greater than 90% and its solubility in water is 10 mg/ml at pH 2.1. The synthesis is continued on the second batch of resin so as to obtain nls-βAla-H. The cleavage solution used is identical to the previous one. The purity of the peptide obtained is greater than 95% and its solubility in water is 10 mg/ml at pH 2.1.

Series [1] has as its system tumours of type 3LL (Lewis Lung carcinoma). The series is described as follows: In vivo transfer into tumour cells (3LL tumours), luciferase activity. Details: species or system mice. Conditions: no peptide. Here is the method: The corresponding tests are carried out on adult (>8 weeks) female C57/BL mice carrying tumours of type 3LL (Lewis Lung carcinoma) obtained by passing fragments of tumour from animal to animal, implanted under the skin of the flank.
As regards the solutions injected, they are prepared as follows: the DNA is first dissolved in the buffer, the peptide is then optionally added and, after 20 minutes, a solution of cationic lipids at high concentration (20 or 40 mM) is added to the mixture. After addition of all these products, the mixture contains, besides the DNA, the peptide and the cationic lipid, 150 mM NaCl, 5% D-glucose and 5 mM MES pH 6.2. In the case of the last two series with lipopolyamine C (RPR 120 535), the injection vehicle is 75 mM NaCl and 150 mM NaCl, 5% D-glucose respectively. The injection is made 20 to 30 minutes after the solution has been prepared.
Each transfecting composition (see Tables 9 and 10 for their respective specificities) is injected into the tumour 7 days after implantation, the mouse being anaesthetized with a ketamine 130 mg/kg+xylazine (4 mg/kg) mixture.
Two days after the injection, the tumour tissue is removed, weighed and then chopped up and ground in 500 μl of lysis buffer (Promega cell lysis buffer E153 A). After centrifugation (20,000 g for 10 minutes), 10 μl are taken and used to evaluate the luciferase activity by measuring the total light emission obtained after mixing with 50 μl of reagent (Promega luciferase assay substrate) in a Lumat LB 9501 luminometer (Berthold), with integration over 10 seconds.
The resulting activity is expressed as RLUs (relative light units) estimated in the entire tumour lysis supernatant, or as RLU per μg of DNA injected.

The next series concerns NIH3T3 cells. As to the kind of experiment: Variation of compound/DNA ratio in the presence of lipopolyamine A, luciferase activity. Format: cell-based. The settings on record: Compound/DNA ratio 0. Here is the method:
1. A mixture of 10 μl composed of the following is prepared:
0.55 μg of pCNV-luc plasma DNA and a compound according to the invention, in the ratio indicated, in 150 mM NaCl buffer solution,
1,3-bis (3-aminopropylamino) -2-propyl (dioctadecyl-carbamoylmethoxy)acetate in the charge ratios indicated.
2. 5·10^4 cells from NIH3T3 lines are incubated with the above mixture at 37° C., under an atmosphere of 5% CO2 for 4 hours. The cells are then washed and recultured for 48 hours in a medium containing 10% serum (DMEM 10% SVF). The cell carpet is then lysed, 45 hours after the transfection, in 100 μl of lysis buffer (Promega), recovered and then centrifuged at 20,000 g for 5 minutes. The luciferase activity is measured on 10 μl of the supernatant, adding 50 μl of substrate (Promega). The reading is taken on a Berthold lumat 9501® luminometer, cumulating the RLUs (relative light units) over 10 seconds.

The test system of a further series is 3LL cells. As to the kind of experiment: In vitro transfer of nucleic acid into 3LL cells, luciferase activity. Format: cell-based. Conditions: 0.5 μg DNA, 0.5 μg peptide, 75 mM NaCl. Here is the method:
A mixture of 10 μl composed of the following is prepared: 0.5 μg of pCMV-luc plasmid DNA, 0.5 μg of PR1 or PR2 a compound according to the invention, in a solution of 75 mM NaCl final lipopolyamine C (RPR 120535) in charge ratios as indicated in each of the tests listed in Table 11 below. 1×10^5 3LL cells (in 250 μl of DMEM culture medium with 10% foetal calf serum) are incubated with the above mixture at 37° C. under a 5% CO2 atmosphere for 4 hours. 500 μl of culture medium are added and the cells are recultured. The following day, the cells are washed and recultured for 24 hours in the same medium containing 10% foetal calf serum. The cell carpet is then lysed in 100 μl of lysis buffer (Promega). The luciferase activity is measured by adding 50 μl of substrate (Promega). The reading is taken on an LB luminometer by cumulating the RLUs (relative light nits) over 10 seconds.

“ATPAKKAAATPAKKAA [N, AlaThrProAlaLysLysAlaAlaAlaThrProAlaLysLysAlaAla (COOH) (SEQ ID No.:3)]”: the concentration in solution in the series “physchem” (water) (solubility) was 100 mg/mL.
For the molecule `CCCCCCCCCCCCCCCCCCN(CCCCCCCCCCCCCCCCCC)C(=O)COCC(=O)OC(CNCCCN)CNCCCN` [lipopolyamine A, d,1-3-bis(3-aminopropylamino)-2-propyl (dioctadecyl-carbamoylmethoxy)acetate], the “Result, RLU/tumour average” value is recorded as 88 712 RLU/tumour in series [1] (7.5 μg DNA/tumour, 0.5 μg/μl, cationic lipid A 3 nmol/μg DNA); 142 300 RLU/tumour in series [1] (20 μg DNA/tumour, 2 μg/μl, cationic lipid A 1.8 nmol/μg DNA); 99 775 RLU/tumour in series [1] (30 μg DNA/tumour, 2 μg/μl, cationic lipid A 3 nmol/μg DNA). In addition, the luciferase activity is reported as 8.9 10^6 RLU in the series with NIH3T3 cells (lipopolyamine A 3x), 6.2 10^6 RLU with NIH3T3 cells (lipopolyamine A 6x) and 3.9 10^6 RLU in the series with NIH3T3 cells (lipopolyamine A NH2/DNA phosphates 1.8x).
For `CC(C)[C@H](NC(=O)[C@H](CCCCN)NC(=O)[C@H](CCCNC(=N)N)NC(=O)[C@H](CCCCN)NC(=O)[C@H](CCCCN)NC(=O)[C@H](CCCCN)NC(=O)[C@@H]1CCCN1)C(=O)NCCC(=O)N[C@@H](CCCCN)C(=O)N[C@H](C(=O)N1CCC[C@H]1C(=O)N[C@@H](CCCCN)C(=O)N[C@@H](CCCCN)C(=O)N[C@@H](C)C(=O)N[C@@H](CCCCN)C(=O)N[C@@H](CCCCN)C(=O)N1CCC[C@H]1C(=O)N[C@@H](CCCCN)C(=O)N[C@H](C(=O)N1CCC[C@H]1C(=O)N[C@@H](CCCCN)C(=O)N[C@@H](CCCCN)C(=O)N[C@@H](C)C(=O)N[C@@H](CCCCN)C(=O)N[C@@H](CCCCN)C(=O)N1CCC[C@H]1C(=O)O)[C@@H](C)O)[C@@H](C)O` [nls-H, ProLysLysLysArgLysVal-βAlaLysThrProLysLysAlaLysLysProLysThrProLysLysAlaLysLysPro (COOH) (SEQ ID No.9)], the concentration in solution in “physchem” (pH 2.1, water) (solubility) was 10 mg/mL (≈ 3.37 mM).
Regarding `CCCCCCCCCCCCCCCCCCN(CCCCCCCCCCCCCCCCCC)C(=O)CNC(=O)CNCCCNCCCCNCCCN` [Lipopolyamine C, H2 N(CH2)3 NH(CH2)4 NH(CH2)3 NHCH2 COGlyN[(CH2)18]2], the “Result, RLU/tumour average” value was 222 700 RLU/tumour in series [1] (18.75 μg DNA/tumour, 0.25 μg/μl, cationic lipid C 2 nmol/μg DNA, vehicle 75 mM NaCl) and 806 467 RLU/tumour in series [1] (20 μg DNA/tumour, 0.5 μg/μl, cationic lipid C 4 nmol/μg DNA, vehicle 150 mM NaCl, 5% D-glucose). Moreover, the luciferase activity in the series with 3LL cells (Table 11, Lipopolyamine C/DNA charge ratio 4x) was 107 289 RLU; with 3LL cells (Table 11, Lipopolyamine C/DNA charge ratio 6x), 77 396 RLU; in the series with 3LL cells (Table 11, Lipopolyamine C/DNA charge ratio 8x) it was 14 512 RLU; in the series with 3LL cells (Table 12, Lipopolyamine C/DNA charge ratio 4x), 12 037 RLU; in the series on 3LL cells (Table 12, Lipopolyamine C/DNA charge ratio 6x) it was 901 RLU; in the series on 3LL cells (Table 12, Lipopolyamine C/DNA charge ratio 8x), 328 RLU.
On to `CC(C)[C@H](NC(=O)[C@H](CCCCN)NC(=O)[C@H](CCCNC(=N)N)NC(=O)[C@H](CCCCN)NC(=O)[C@H](CCCCN)NC(=O)[C@H](CCCCN)NC(=O)[C@@H]1CCCN1)C(=O)O` [nls, ProLysLysLysArgLysVal], for which the solubility (commonly how much of the substance goes into solution per volume) in the series “physchem” (pH 2.1, water) stood at 100 mg/mL (≈ 113 mM).
Same read-out and setting: for “KTPKKAKKPKTPKKAKKP [H, LysThrProLysLysAlaLysLysProLysThrProLysLysAlaLysLysPro (COOH) (SEQ ID No.:4)]” the value was 10 mg/mL.
